According to patent EP0559845B1, “Use of compounds in preventing endotoxin shock” (priority 1991, dated 1992):
Entries after “also recorded” stand apart in the source; their conditions may differ. Like-named read-outs stand apart in the source and are kept apart here.

Experiments:
Format in all cases: biochemical
[1] = system: LPS-induced GTPase activity in membranes isolated from RAW 264.7 cells; experiment: GTPase assay: effect of compounds on LPS-stimulated GTPase activity in macrophage membranes (release of 32Pi from γ-32P-GTP); settings: for relative abilities of purines to stimulate LPS-enhanced GTPase: dose-response studies, rank order; for sensitivity of LPS-stimulated GTPase activity to inhibitor: high concentrations of inhibitor, 0.1 mM ATP and 0.2 mM AMPPNP
Source text: (§1) We sought to directly evaluate the influence of LPS on possible G-protein function by examining agonist-enhanced GTPase activity, which is a hallmark of G-protein action. Moreover, because macrophages are one of the key cell types in the release of toxic mediators following an LPS challenge, we first assessed the capacity of LPS to influence GTPase activity in membranes isolated from RAW 264.7 cells, which is a highly LPS-responsive macrophage cell line. In these studies, GTPase activity was measured using a standard assay. The activity was determined using 2 µM γ-^32P-GTP in the presence of 0.1 mM ATP and 0.2 mM of the non-hydrolyzable ATP analog, AMPPNP, in order to minimize nonspecific nucleotidase activity in the membrane preparations.
The reaction is initiated by the addition of the γ-^32P-GTP and the mixture incubated at 30-37°C for 15 to 30 minutes. The reaction is terminated by the addition of 500µl of 5% trichloroacetic acid and 500µl of 0.1gm/ml acid-activated charcoal in 5% trichloroacetic acid. The samples are centrifuged at 14,000xg for 10 minutes, and a 550µl aliquot of the supernatant is removed for scintillation counting. The supernatant will contain the released ^32Pi. The extent of GTPase inhibition is measured by the decrease in the amount of ^32Pi released from γ-^32P-GTP. Appropriate controls include mixtures with one of the following omitted: (i) test compound, (ii) endotoxin, and (iii) ATP, ADP or AMPPNP.
The membranes are resuspended in 20 mM HEPES (pH 7.4), 1 mM dithiothreitol, 1 mM EDTA and 10 µg leupeptin/ml. Aliquots are stored at -70°C until assayed.

[2] = system: GTPase activity in membranes isolated from a macrophage (RAW 264.7) cell line; experiment: GTPase assay, basal activity and single agonists
Source text: as §1, with “preparations. In the preferred practice of the present invention, the ability of a candidate compound to inhibit LPS-induced GTPase is assessed by measuring the release of ^32Pi from γ-^32P-GTP.” for “preparations.”
(§2) We first determined the optimal LPS concentration for GTPase stimulation. In all experiments, the LPS dose response curve was quite steep, and with the highest activity occurring around 200-300 µg LPS/ml.
(§3) Under these conditions, GTPase activation was evident at 100 µg LPS/ml (roughly 6 µM assuming an average MW ∼ 17,000 kDa), and the maximal effect was seen by 300 µg/ml LPS. (2) To show adenosine mucleotide synergism with LPS-stimulated GTPase activity, either 10µM ATP or 30µM ADP replace the 0.1 mM ATP and 0.2 mM AMPPNP of the standard assay described by Cassel et al. and Neer et al.
Because the above inhibitor studies indicated a maximum LPS-stimulated GTPase activity in the presence of ATP and ATP analogs, we investigated this interaction by measuring the ATP-dependence of the GTPase activity in macrophage membranes in the presence and absence of an optimal dose of LPS. […] This stimulation by ATP may be due to the action of purinergic receptors, i.e., the adenosine and ATP receptors which are well-characterized to be coupled to various G-proteins.
(§4) To assess whether the LPS/ATP-enhanced GTPase is a "low Km" form, which would be expected for a variety of large and small MW G-proteins, as well as for various GAP and ARF-like proteins, as opposed to a "high Km" form, such as a phosphatase, we assayed the GTPase activity using 0.2 and 50 µM GTP essentially as described previously. […] The LPS and ATP stimulated a low Km GTPase activity by ∼30% and 70%, respectively, when added individually. This stimulation of low Km activity was slightly greater than that estimated using the standard assay conditions. […] The LPS stimulation of GTPase activity is enhanced by adenine nucleotides.

[3] = system: LPS-induced GTPase activity in membranes isolated from RAW 264.7 cells; experiment: GTPase assay (release of 32Pi from γ-32P-GTP), LPS-stimulated activity; settings: for LPS-stimulated GTPase activity when adenine nucleotide included in the incubation: compared with no added adenine nucleotides
Source text: as §1, with “preparations. In the preferred practice of the present invention, the ability of a candidate compound to inhibit LPS-induced GTPase is assessed by measuring the release of ^32Pi from γ-^32P-GTP.” for “preparations.”
as §3
(§5) In the preferred assay, a candidate compound (.001 - 1000 µM) is dissolved or suspended in 100µl of a reaction buffer containing 20mM HEPES (pH 7.4), 0.01mM ATP or ADP, membranes isolated from RAW 264.7 cells, 2µM γ-^32P-GTP (3-9 X 10cpm/pmol), 5mM MgCl2, 18µM LPS (based on an estimated MW of 17,000 kDa for E. coli 0111:B4 endotoxin), and 250 mM ammonium sulfate. The reaction is initiated by the addition of the γ-^32P-GTP and the mixture incubated at 30-37°C for 15 to 30 minutes. The reaction is terminated by the addition of 500µl of 5% trichloroacetic acid and 500µl of 0.1gm/ml acid-activated charcoal in 5% trichloroacetic acid. The samples are centrifuged at 14,000xg for 10 minutes, and a 550µl aliquot of the supernatant is removed for scintillation counting. The supernatant will contain the released ^32Pi. The extent of GTPase inhibition is measured by the decrease in the amount of ^32Pi released from γ-^32P-GTP. Appropriate controls include mixtures with one of the following omitted: (i) test compound, (ii) endotoxin, and (iii) ATP, ADP or AMPPNP.
(§6) The macrophage-like cell line RAW 264.7 is cultured as described using RPMI 1640 medium supplemented with 10% fetal calf serum (FCS) containing < 0.1 ng/ml LPS. The membranes are resuspended in 20 mM HEPES (pH 7.4), 1 mM dithiothreitol, 1 mM EDTA and 10 µg leupeptin/ml. Aliquots are stored at -70°C until assayed.

[4] = system: GTPase activity in membranes isolated from a macrophage (RAW 264.7) cell line; experiment: GTPase assay: basal or agonist-stimulated GTPase activity in macrophage membranes
Source text: as §1, with “preparations. In the preferred practice of the present invention, the ability of a candidate compound to inhibit LPS-induced GTPase is assessed by measuring the release of ^32Pi from γ-^32P-GTP.” for “preparations.”
as §2, §3, §5, §6, §4

O=c1ccn([C@@H]2O[C@H](COP(=O)(O)OP(=O)(O)OP(=O)(O)O)[C@@H](O)[C@H]2O)c(=O)[nH]1 [UTP]
stimulation of LPS-enhanced GTPase activity ([1]; at 100 µM): did not synergistically increase

phosphatidylcholine [listing 1 of 2 here]
effect on basal GTPase activity [2]: did not stimulate

Cn1c(=O)c2[nH]cnc2n(C)c1=O [theophylline]
stimulation of LPS-enhanced GTPase activity ([1]; at 100 µM): did not synergistically increase

CO/C1=C\C(C)=C\[C@@H](C)[C@@H](O)[C@@H](C)C/C(C)=C/C=C/[C@H](OC)[C@@H]([C@@H](C)[C@@H](O)[C@H](C)[C@@]2(O)C[C@@H](O)[C@H](C)[C@@H](C(C)C)O2)OC1=O [bafilomycin]
inhibition of LPS-stimulated GTPase activity [1]: not antagonized
inhibition of LPS-stimulated GTPase activity ([1]; in the presence of ADP): did not block

Nc1ncnc2c1ncn2[C@@H]1O[C@H](COP(=O)(O)O)[C@@H](O)[C@H]1O [AMP]
stimulation of LPS-enhanced GTPase activity ([1]; at 100 µM): ineffective; also recorded: did not synergistically increase

CC(C)Cn1c(=O)n(C)c(=O)c2[nH]cnc21 [IBMX]
effect on the LPS activation of the GTPase ([3]; P1 purinoreceptor antagonist): did not alter
inhibition of LPS-stimulated GTPase activity [1]: did not alter the LPS activation of the GTPase
stimulation of LPS-enhanced GTPase activity ([1]; at 100 µM): did not synergistically increase

Nc1ncnc2c1ncn2[C@@H]1O[C@H](CO)[C@@H](O)[C@H]1O [adenosine]
stimulation of LPS-enhanced GTPase activity ([1]; at 100 µM): ineffective; also recorded: did not synergistically increase

Nc1ncnc2c1ncn2[C@@H]1O[C@H](COP(=O)(O)OP(=O)(O)O)[C@@H](O)[C@H]1O [ADP]
LPS-stimulated GTPase activity when adenine nucleotide included in the incubation [3]: pronounced increase
stimulation (potentiation) of LPS-stimulated GTPase activity [1]: potentiated; also recorded: pronounced increase in LPS-stimulated GTPase activity
relative abilities of purines to stimulate LPS-enhanced GTPase [1]: ATP> ATPγS> ADP> AMPPNP>> β,γ methylene ATP> 2-MeSATP

phosphatidylcholine [listing 2 of 2 here]
inhibition of LPS-stimulated GTPase activity [1]: nor inhibit LPS-stimulated GTPase activity
effect on basal GTPase activity ([4]; no LPS): did not stimulate basal GTPase activity

phosphatidic acid [listing 1 of 2 here]
effect on basal GTPase activity [2]: did not stimulate

Triton X-100
inhibition of LPS-stimulated GTPase activity [1]: did not substantially interfere
effect on basal GTPase activity ([4]; no LPS): did reduce basal GTPase activity

Nc1ncnc2c1ncn2[C@@H]1O[C@H](COP(=O)(O)OP(=O)(O)CP(=O)(O)O)[C@@H](O)[C@H]1O [β,γ methylene ATP]
relative abilities of purines to stimulate LPS-enhanced GTPase [1]: ATP> ATPγS> ADP> AMPPNP>> β,γ methylene ATP> 2-MeSATP

O=[N+]([O-])c1ccc(OP(=O)(O)O)cc1 [p-nitrophenyl-phosphate]
inhibition of LPS-stimulated GTPase activity [1]: not antagonized
sensitivity of LPS-stimulated GTPase activity to inhibitor [1]: insensitivity

phosphatidylserine [listing 1 of 2 here]
effect on basal GTPase activity [2]: did not stimulate

phosphatidylserine [listing 2 of 2 here]
inhibition of LPS-stimulated GTPase activity [1]: nor inhibit LPS-stimulated GTPase activity
effect on basal GTPase activity ([4]; no LPS): did not stimulate basal GTPase activity

CCN1C(=O)C=CC1=O [N-ethyl-maleimide]
inhibition of LPS-stimulated GTPase activity [1]: not antagonized
inhibition of LPS-stimulated GTPase activity ([1]; in the presence of ADP): did not block

[Na+].[Na+].[Na+].[O]=[V]([O-])([O-])[O-] [sodium orthovanadate]
inhibition of LPS-stimulated GTPase activity [1]: did block LPS activation

phosphatidic acid [listing 2 of 2 here]
inhibition of LPS-stimulated GTPase activity [1]: nor inhibit LPS-stimulated GTPase activity
effect on basal GTPase activity ([4]; no LPS): did not stimulate basal GTPase activity

C[C@@H]1O[C@@H](O[C@H]2C[C@@H](O)[C@]3(CO)[C@H]4[C@H](O)C[C@]5(C)[C@@H](C6=CC(=O)OC6)CC[C@]5(O)[C@@H]4CC[C@]3(O)C2)[C@H](O)[C@H](O)[C@H]1O [ouabain]
inhibition of LPS-stimulated GTPase activity [1]: not antagonized
sensitivity of LPS-stimulated GTPase activity to inhibitor [1]: insensitivity
inhibition of LPS-stimulated GTPase activity ([1]; in the presence of ADP): did not block

Nc1ncnc2c1ncn2[C@@H]1O[C@H](COP(=O)(O)OP(=O)(O)NP(=O)(O)O)[C@@H](O)[C@H]1O [AMPPNP]
LPS-stimulated GTPase activity when adenine nucleotide included in the incubation [3]: pronounced increase
stimulation (potentiation) of LPS-stimulated GTPase activity [1]: pronounced increase in LPS-stimulated GTPase activity
relative abilities of purines to stimulate LPS-enhanced GTPase [1]: ATP> ATPγS> ADP> AMPPNP>> β,γ methylene ATP> 2-MeSATP

Nc1ncnc2c1ncn2[C@@H]1O[C@H](COP(=O)(O)OP(=O)(O)OP(=O)(O)O)[C@@H](O)[C@H]1O [ATP]
LPS-stimulated GTPase activity when adenine nucleotide included in the incubation [3]: pronounced increase
stimulation (potentiation) of LPS-stimulated GTPase activity [1]: potentiated; also recorded: pronounced increase in LPS-stimulated GTPase activity
ATP concentration of striking synergistic stimulation of GTPase activity ([1]; ATP and LPS added together, biphasic): 1 to 10 µM
increase in activity of the GTPase ([1]; ATP in the presence of LPS): three-fold
stimulation of LPS-enhanced GTPase activity ([1]; at 1 µM): active
relative abilities of purines to stimulate LPS-enhanced GTPase [1]: ATP> ATPγS> ADP> AMPPNP>> β,γ methylene ATP> 2-MeSATP
ATP concentration of maximum stimulation of GTPase activity ([4]; ATP alone, no LPS, biphasic stimulation): 1 to 10 µM
combined effects of LPS and ATP: stimulation calculated for the low Km activity ([4]; LPS plus ATP): 228 % of basal activity
combined effects of LPS and ATP: stimulation measured using standard assay conditions ([4]; LPS plus ATP, 2 µM GTP, 0.1 mM ATP, 0.2 mM AMPPNP): 208 % of basal activity
stimulation of low Km GTPase activity ([4]; added individually, ATP 10 µM): 70%

NC(=O)c1ccc[n+]([C@@H]2O[C@H](COP(=O)([O-])OP(=O)(O)OC[C@H]3O[C@@H](n4cnc5c(N)ncnc54)[C@H](O)[C@@H]3O)[C@@H](O)[C@H]2O)c1 [NAD]
stimulation of LPS-enhanced GTPase activity ([1]; at 100 µM): did not synergistically increase

Nc1ncnc2c1ncn2[C@@H]1O[C@H](COP(=O)(O)OP(=O)(O)OP(O)(O)=S)[C@@H](O)[C@H]1O [ATPγS]
relative abilities of purines to stimulate LPS-enhanced GTPase [1]: ATP> ATPγS> ADP> AMPPNP>> β,γ methylene ATP> 2-MeSATP
